Our source for the RP-LC retention time values is the METLIN SMRT retention time set (Domingo-Almenara et al. 2019).

Each structure is given as a SMILES string.

This series is described as follows: gradient 5% acetonitrile 3 min, to 50% in 2 min, to 85% in 15 min, held 3 min, 100 µL/min. Particulars: column: Zorbax Extend-C18 2.1 x 50 mm; eluents: water / acetonitrile, 0.1% formic acid. The method, boiled down:
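Pure standards were run in mixtures of ~100 molecules by HPLC coupled to a quadrupole time-of-flight mass spectrometer. The column was a Zorbax Extend-C18 (2.1 × 50 mm, 1.8 μm) at 100 μL/min, with water and acetonitrile each containing 0.1% formic acid, in positive and negative ionization mode. Dead and dwell volumes were 40 μL and 900 μL. Retention time was taken from computationally picked adduct peaks, each manually inspected, with data collected over 3 months.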
For the compound `O=C(CN1C(=O)C2CCCCN2c2ccc(C(=O)N3CCOCC3)cc21)Nc1ccc(Cl)cc1` (configuration not stated), the RP-LC retention time was 832 s.

In turn, `Cc1ccc(S(=O)(=O)N2CCC(N3CCN(Cc4ccccc4)C(=O)C3=O)CC2)cc1Cl` gave an RP-LC retention time of 799 s.

With `COc1ccc(N2C(=O)CN(Cc3ccccc3C)[C@H]3CS(=O)(=O)C[C@H]32)cc1`, the RP-LC retention time is 812 s.

Compound `CCCc1noc(-c2ccc(-n3ncc(C(=O)NC4CC4)c3C)nc2)n1` returned an RP-LC retention time of 865 s.

On to `CCCNC(=O)N(C1CCOCC1)C1CCN(S(=O)(=O)c2cc(F)ccc2C)CC1`, for which the RP-LC retention time amounted to 897 s.

In the case of `CCOC(=O)c1ccc(NC(=O)Cn2c(=O)n(CC)c(=O)c3c2cc(C)n3C)cc1`, the RP-LC retention time stood at 771 s.

For `Cc1ccc(CN2N=C(C(=O)N3CCC(C)CC3)S(=O)(=O)c3ccccc32)cc1`, the RP-LC retention time is 1060 s.

As to `COCc1cc(=O)n(CC(=O)NCc2ccc(F)cc2F)c(N)n1`, the RP-LC retention time was determined as 603 s.

Regarding `Cc1cccc(N2CCN(Cc3nc4nc(C)cc(N5CCOCC5)n4n3)CC2)c1`, the RP-LC retention time was determined as 636 s.

On to `CCc1ccc(CNC(=O)C2CCCN(c3nccnc3Sc3ccccc3)C2)cc1` (configuration not stated), for which the RP-LC retention time came to 1140 s.

In turn, `COc1ccc(C(=O)N2C[C@@H]3C[C@H](NS(C)(=O)=O)[C@H]2C3)c(C)c1` gave an RP-LC retention time of 629 s.

`COC(=O)c1ccc(NC(=O)CSc2cc(N3CCN(c4ccc(OC)cc4)CC3)ncn2)cc1` displayed an RP-LC retention time of 926 s.

Take `COc1ccc(CC(=O)N2C[C@@H]3C[C@H](NC(=O)c4ccccc4)[C@H]2C3)cc1Cl`: the RP-LC retention time came to 794 s.

For `Cc1cccc(-c2csc3c(=O)n(CC(=O)OC(C)(C)C)cnc23)c1`, the RP-LC retention time came out at 1070 s.

Consider `CCc1cc(C(=O)Nc2ccc(F)c(F)c2)no1`, for which the RP-LC retention time turned out to be 952 s.

Compound `COc1ccccc1NC(=O)NC1CCCC(OC(=O)Nc2ccc(F)cc2)C1` (configuration not stated) gave an RP-LC retention time of 883 s.

In turn, `CSc1cccc(NC(=O)CCc2c(-c3ccc(F)cc3)nc3ccccn23)c1` displayed an RP-LC retention time of 713 s.

`CCCn1ncc(N2CCC(C(=O)N3CCOCC3)CC2)cc1=O`: the RP-LC retention time is 619 s.

`COc1cccc(OC)c1OCC(O)CN1CCN(c2ccc(F)cc2)CC1` (configuration not stated) showed an RP-LC retention time of 690 s.

Take `Cc1ccc(Cn2c(N3CCC(C(=O)NCC(C)C)CC3)nc3ccsc3c2=O)cc1`: the RP-LC retention time was determined as 920 s.

For `Cc1nc(C)c(-c2nnc(NC(=O)c3ccc(=O)[nH]n3)o2)s1`, the RP-LC retention time is 578 s.

Compound `CON=C(C(=O)N[C@@H]1C(=O)N2C(C(=O)O)=C(CSc3nnnn3C)CS[C@H]12)c1csc(N)n1` came in with an RP-LC retention time of 621 s.

In the case of `O=S(=O)(Nc1ccc(F)cc1)c1cccnc1Nc1cccc(F)c1`, the RP-LC retention time was found to be 1060 s.

For `COc1ccc(-c2nnc(COc3ccc(NC(=O)C(NC(=O)c4ccco4)C(C)C)cc3)o2)cc1` (configuration not stated), the RP-LC retention time amounted to 854 s.

Take `O=C(CC1CCCCC1)NC1CCCN(c2ccc(=O)n(CC3CC3)n2)C1` (configuration not stated): the RP-LC retention time came to 836 s.

`COc1ccc(C2=NC(c3ccc(Cl)cc3)C(c3ccc(Cl)cc3)N2C(=O)N2CCNC(=O)C2)c(OC(C)C)c1` (configuration not stated) returned an RP-LC retention time of 887 s.

For `COc1ccc(Cc2nnc3sc(-c4ccccc4OC)nn23)cc1`, the RP-LC retention time came to 976 s.

Turning to `CCC(C)C(NC(=O)c1ccc(Cl)cc1)C(=O)Nc1nc2ccccc2[nH]1` (configuration not stated), the RP-LC retention time stood at 793 s.

As for `O=C(CCN(CC1CCCO1)C(=O)c1cccc(Br)c1)N1CCNCC1` (configuration not stated), the RP-LC retention time was 610 s.

In the case of `COc1ncc(C(=O)Nc2ccc(F)cc2F)c(C)n1`, the RP-LC retention time was 724 s.

`COc1ccccc1CNC(=O)c1ccc2c(c1)NC(=O)C1CCCCN21` (configuration not stated): the RP-LC retention time is 809 s.

In turn, `Cc1noc(C2CN(C(=O)Cc3ccccc3)CC23CCN(C)CC3)n1` (configuration not stated) yielded an RP-LC retention time of 920 s.

With `COC(=O)c1cccc(-c2nc(-c3nnn(Cc4ccccc4)c3C)no2)c1`, the RP-LC retention time came out at 1010 s.

Compound `CCOc1ccc(NC(=O)COc2cc(C)nc(N3CCCC3)n2)cc1` returned an RP-LC retention time of 649 s.

`O=S(=O)(c1ccc2c(c1)CCC2)N1CCC2(CC1)CC(Cc1nc(-c3cnccn3)no1)CCO2` (configuration not stated) showed an RP-LC retention time of 1010 s.

On to `CCOC(=O)C1CC(C)=C(C)CC1C(=O)O` (configuration not stated), for which the RP-LC retention time was 854 s.

On to `CC1CCCN(S(=O)(=O)c2ccc(-n3cnc(C(=O)N4CCN(C)CC4)c3)nc2)C1` (configuration not stated), for which the RP-LC retention time came out at 648 s.

`O=C(NC1CCN(c2ccccc2)C1=O)c1ccccc1Br` (configuration not stated) showed an RP-LC retention time of 766 s.

Take `CCC(=O)N1CCC2(CC1)NC(=O)c1ccccc1O2`: the RP-LC retention time was 649 s.

Take `Cc1ccc(N2CCC(NC(=O)NCc3ccc(F)cc3)C2=O)cc1C` (configuration not stated): the RP-LC retention time came out at 874 s.

Take `CCc1ccc(C(=O)NC2CCN(c3cc(-c4ccc(Cl)cc4)[nH]n3)C2)cc1` (configuration not stated): the RP-LC retention time is 879 s.

`Cc1ccc(NC(=O)N2CCN(c3cc(-c4ccncc4)[nH]n3)CC2)c(C)c1` returned an RP-LC retention time of 615 s.

As to `CCOc1ccc(-c2nc(Cc3noc(-c4ccc(C#N)cc4)n3)c(C)o2)cc1`, the RP-LC retention time came out at 1160 s.

In the case of `Cc1ccc(NC(=O)Cn2cnc3nc(N4CCCC(C(=O)NC(C)C)C4)sc3c2=O)cc1F` (configuration not stated), the RP-LC retention time was determined as 739 s.

In turn, `CS(=O)(=O)N1CCC(OC2CCN(C(=O)c3ccc(Cl)cc3)CC2)CC1` had an RP-LC retention time of 767 s.

`COc1ccc(C)cc1NC(=O)Cn1ncc2c(c1=O)N(C1CC1)C(=O)CS2`: the RP-LC retention time was 794 s.

Turning to `C[C@H]1CN(C(=O)c2cc(F)cc(F)c2)C[C@@H]1c1nc(-c2ccncc2)no1`, the RP-LC retention time is 781 s.

`COc1cc(OC)cc(-c2nnc(Cc3nc(-c4cccc(Cl)c4)no3)o2)c1`: the RP-LC retention time turned out to be 1130 s.

Turning to `O=c1n(Cc2ccccc2)nc2n1CCN(S(=O)(=O)c1cnc[nH]1)CC2`, the RP-LC retention time is 646 s.

In turn, `COc1cc(NC(=O)c2sc(-c3cn(C)c4ncccc34)nc2C)cc(OC)c1` came in with an RP-LC retention time of 764 s.

In turn, `COc1cccc(C2Cn3nnc(-c4nc(-c5ccc(OC)c(F)c5)no4)c3CO2)c1` (configuration not stated) came in with an RP-LC retention time of 1140 s.

`COc1ccc(-c2n[nH]c3c2C(c2cccc(O)c2)N(C)C3=O)cc1` (configuration not stated): the RP-LC retention time came to 686 s.

For `CN(C)C(=O)c1csc(S(=O)(=O)N2CCC(C(=O)NCc3ccc4c(c3)OCO4)CC2)c1`, the RP-LC retention time came to 714 s.

The compound `COc1cc(OC)c(NC(=O)Cc2cn3cc(F)ccc3n2)cc1Cl` came in with an RP-LC retention time of 637 s.

With `O=C(NCc1cccnc1Oc1ccccc1)c1cnn2cccnc12`, the RP-LC retention time is 695 s.

Compound `COCCN1C(=O)c2ccccc2C(C(=O)NCCc2ccc(OC)cc2)C12CCCC2` (configuration not stated) registered an RP-LC retention time of 807 s.

Turning to `Cc1ccc(CS(=O)(=O)Nc2ccc3c(c2)nc(-c2ccc(C(=O)NC(C)C)cc2)n3C)cc1`, the RP-LC retention time is 702 s.

In turn, `Cc1ccc(-c2csc(NC(=O)c3cccs3)n2)cc1C` yielded an RP-LC retention time of 1180 s.

As to `CCC(Oc1ccc(=O)n(-c2ccc(F)cc2)n1)C(=O)NCc1ccc(C)o1` (configuration not stated), the RP-LC retention time stood at 831 s.

As for `COc1ccc(S(=O)(=O)N2CCCC(C(=O)N3CCN(c4ccccc4)CC3)C2)cc1Cl` (configuration not stated), the RP-LC retention time stood at 1010 s.

With `CCCS(=O)(=O)N1CCCN(C2=NS(=O)(=O)C(c3ccc(C)cc3)=C2C)CC1`, the RP-LC retention time is 874 s.

The compound `COc1ccc(NC(=O)CSc2nccc(N3CCN(c4cc(C)ccc4C)CC3)n2)cc1OC` showed an RP-LC retention time of 774 s.

Compound `O=C1Nc2ccc(S(=O)(=O)N3CCN(c4ccccn4)CC3)cc2C1=C1CCCC1` showed an RP-LC retention time of 662 s.

On to `N#Cc1cccc(NC(=O)CN2C(=O)NC(c3ccc(Cl)cc3)C3=C2COC3=O)c1` (configuration not stated), for which the RP-LC retention time was 763 s.

Turning to `O=C(Nc1nc(CC(=O)N2CCN(c3ncccn3)CC2)cs1)C1CCCC1`, the RP-LC retention time is 669 s.

Consider `CSc1cccc(N2C(=O)C3N=NN(Cc4nc(-c5ccc(C)c(C)c5)no4)C3C2=O)c1` (configuration not stated), for which the RP-LC retention time is 1100 s.

In turn, `O=C(Nc1ccc(N2CCN(C3CCCC3)C2=O)nc1)c1cc(F)cc(F)c1` gave an RP-LC retention time of 917 s.

Turning to `C=CCNC(=O)c1c2c(nc3ccc(C)cc13)CCC2`, the RP-LC retention time stood at 606 s.

Consider `CCC(=O)NCc1nc2c(n1C)CN(S(=O)(=O)c1cccc(F)c1)CC2`, for which the RP-LC retention time came to 558 s.

`CCOC(=O)c1[nH]c(C)c(C(=O)C(C)N(C(=O)c2ccc(Cl)cc2)C2CC2)c1C` (configuration not stated) showed an RP-LC retention time of 978 s.

In turn, `Cc1ccccc1NC(=O)N1CC(F)(F)C[C@H]1CN1CCCC1` registered an RP-LC retention time of 622 s.

For `COc1cccc(CN2C[C@@H]3C(=O)N(Cc4ccc5c(c4)OCO5)C(=O)[C@@H]3C2)c1`, the RP-LC retention time is 724 s.

The compound `CC(C)CC[C@@H](O)[C@](C)(O)C1CC[C@@]2(O)C3=CC(=O)[C@]4(O)C[C@@H](O)[C@@H](O)C[C@]4(C)C3[C@H](O)C[C@]12C` (some centres not stated) had an RP-LC retention time of 638 s.

As to `CCCC(=O)Nc1cccc(NC(=O)c2ccccc2Br)c1`, the RP-LC retention time amounted to 863 s.

In the case of `CCS(=O)(=O)c1ccc(-c2ccc(NS(=O)(=O)c3ccc(Cl)s3)cc2)nn1`, the RP-LC retention time is 810 s.

For the compound `Cc1ccc(-c2cc3c4nnc(SCC(=O)Nc5ccccc5Cl)n4ccn3n2)cc1C`, the RP-LC retention time was found to be 1020 s.

Compound `CCC(=O)N1CCc2c(C(=O)NC3CC3)cccc21` had an RP-LC retention time of 653 s.
